Consider 1 substance from US10100284B2, “Method for inducing differentiation of pluripotent stem cells into endodermal cells” (TOAGOSEI CO., LTD., priority 2013, dated 2018).

The test system of test [1] is iPS cells (clone name: 201B2 or 201B7). Briefly: ALB ELISA of iPS cell culture supernatant. Type of test: cell-based, human. As to conditions: peptide concentration in medium 6 μM; as culture time increased; FIG. 4. The procedure:
The stem cell differentiation-inducing activity of the differentiation-inducing synthetic peptide (Sample 1) obtained in Example 1 was evaluated by quantifying changes over time in the expressed amounts (typically extracellular secretion) of AFP and ALB, which are proteins known as markers of differentiation into endodermal cells. It is known that AFP is expressed in cells that have differentiated into liver precursor cells among the endodermal cells, while ALB is expressed in cells that have differentiated sufficiently to function effectively as hepatocytes (that is, hepatocytes or hepatocyte-like cells). […]
50 μL of the accessory Chromogen Substrate Solution (coloring reagent) was then added per well, and left standing for 15 minutes in the dark. […] Absorbance A450 at 450 nm and absorbance A550 at 550 nm were then measured with a spectrophotometer in the reaction liquid in the wells.
Absorbance values A(450-550) were calculated by subtracting the absorbance A550 from the absorbance A450 obtained by the previous measurement (that is, absorbance A(450-550)=[…]) for each of the samples from the AFP evaluation test group and ALB evaluation test group. […]

Test [2] has the same test system. Briefly: Quantitative RT-PCR of stem cell marker gene and germ layer differentiation marker genes in iPS cells. As to conditions: peptide concentration 6.0 μM, FIG. 3. Type of test: cell-based, human. On the procedure: The stem cell differentiation-inducing activity of a differentiation-inducing synthetic peptide (Sample 1) obtained in Example 1 above was evaluated by measuring changes over time in the expressed amounts of a stem cell differentiation marker gene (that is, a stem cell marker gene) and differentiation marker genes for the three kinds of germ layer cells. iPS cells that had been cultured and passaged in vitro were used as the test cells. The specifics of the evaluation test were as follows.
iPS cells (clone name: 201B2 or 201B7) were cultured as in Example 2 except that Sample 1 that had been prepared with DMSO/EtOH=1/1 to a peptide concentration of 4 mM was added 1.5 μL/well (that is to a peptide concentration of 6.0 μM in the well). A peptide-free group was also established as a comparative example. The medium was replaced and peptide was added two days, four days and six days after initiation of iPS cell culture. […]
25 to […] of purified RNA was supplied to quantitative RT-PCR, and the expressed amounts of a stem cell marker gene and differentiation marker genes for the three kinds of germ layer cells were quantified. […] A One Step SYBR® PrimeScript® PLUS RT-PCR Kit (TaKaRa Bio) was used for the quantitative RT-PCR, in accordance with the attached manual. […] The quantitative RT-PCR reaction consisted of 5 minutes of incubation at 42° C. to perform reverse transcription, followed by 10 seconds of incubation at 95° C., and 40 cycles consisting of 5 seconds at 95° and 31 seconds at 63° C.
The quantitative results for expression of a stem cell marker gene and differentiation marker genes for the three kinds of germ layer cells are shown in FIG. 3. The expressed amounts of these genes were first corrected by the expressed amounts of the GAPDH gene in each test group, and the relative expressed amount of the gene in the Sample 1 group relative to the expressed amount of the gene in the peptide-free group was determined by the ΔΔCt method.

Where no end group is shown, it is not given here.

“LLLLLLVGLTAPAGKKRTLRKNDRKKR-CONH2 (LLLLLLVGLTAPAGKKRTLRKNDRKKR-NH2) [Sample 1]”: in test [1], the “ALB level of the culture supernatant in comparison with peptide-free group with the same culture time” value was “increased dramatically”. The “increase in the relative expressed amount of the AFP gene” value in test [2] (20th day after initiation of culture) is “particularly dramatic”. Besides, in test [2], the “expression timing of endodermal cell marker genes SOX17, GATA4 and FOXA2” value is on record as “sooner than the AFP gene”. The “relative expressed amount of the AFP gene (endodermal marker gene) relative to peptide-free group (ΔΔCt, GAPDH corrected)” value in test [2] (beginning 13 days after initiation of culture) is “increased much more than the relative expressed amounts of the other genes”.
